From publication PMC11587536 (Biochemistry, 2024)

Molecular target: MoLOX (Pyricularia oryzae, UniProt G4NAP4)
Sequence (G4NAP4 17-619 limits assumed): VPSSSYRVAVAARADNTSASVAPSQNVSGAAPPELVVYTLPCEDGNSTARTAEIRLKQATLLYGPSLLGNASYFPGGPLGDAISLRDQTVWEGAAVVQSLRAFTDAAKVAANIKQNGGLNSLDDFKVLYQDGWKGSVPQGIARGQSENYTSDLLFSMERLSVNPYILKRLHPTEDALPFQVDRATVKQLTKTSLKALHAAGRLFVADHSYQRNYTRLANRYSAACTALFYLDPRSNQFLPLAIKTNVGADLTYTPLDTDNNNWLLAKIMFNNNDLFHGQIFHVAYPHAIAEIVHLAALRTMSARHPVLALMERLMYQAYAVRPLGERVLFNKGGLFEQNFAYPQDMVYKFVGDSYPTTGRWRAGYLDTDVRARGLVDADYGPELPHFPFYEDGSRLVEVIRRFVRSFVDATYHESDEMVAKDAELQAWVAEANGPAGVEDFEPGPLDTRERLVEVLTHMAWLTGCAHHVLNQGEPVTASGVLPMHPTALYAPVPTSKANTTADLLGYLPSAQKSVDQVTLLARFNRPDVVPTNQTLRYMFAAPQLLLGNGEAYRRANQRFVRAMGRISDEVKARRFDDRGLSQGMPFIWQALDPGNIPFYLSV

Structure (SMILES): CC/C=C\C/C=C\C/C=C\CCCCCCCC(=O)O [αLA, alpha linolenic]
- O2 electrode, steady-state kinetics: WT MoLOX reacts nearly twice as fast with αLA as with LA
